Article PMC12782889, “A GmNRF5a–GmCERK1–GmCAK1 module mediates chitin/chitosan‐triggered immune response in soybean” (Journal of Integrative Plant Biology, 2025)

Columns and labels:
[1] = tested on: GmCERK1-GmCAK1 interaction; assay: Co-immunoprecipitation of GmCERK1-GFP with GmCAK1-HA in N. benthamiana; type: cell-based, soybean (Glycine max); conditions: Co-IP; N. benthamiana leaves treated 50 mg/L for 5 min
Description: (§1) Nicotiana benthamiana leaves were harvested 48 h post inoculation (hpi) after agroinfiltration. Samples were ground in liquid nitrogen and incubated for 30 min in a lysis buffer (50 mM Tris-HCl pH 8.0, 150 mM NaCl, 1.0% (v/v) NP-40, 0.1% SDS (w/v) and 0.1% protease inhibitor cocktail ([…]; Sigma, St. Louis, MI, USA)). Supernatant was collected by centrifugation at 21,000 g for 15 min and then incubated with GFP-trap beads (item No.: gta-20; Chromotek, Hauppauge, NY, USA) at 4°C for 2 h. The GFP-trap beads were pelleted by centrifugation at 500 g for 2 min and washed with lysis buffer at least four times. Proteins were eluted by boiling the beads in a protein loading buffer for 10 min and detected by immunoblot analysis with anti-GFP (Cat No. M20004; Abmart, Shanghai, China) or anti-HA (Cat No. M20013; Abmart, Shanghai, China).

[2] = target: GmCERK1^ECD (Glycine max, UniProt K7N1N7); assay: Microscale thermophoresis (MST) binding to GmCERK1^ECD; design: species or system soybean (Glycine max); conditions: ligand dp6, His-tagged protein purified from Pichia pastoris, read-out: dissociation constant (K D) with GmCERK1^ECD
Description: (§2) The ectodomains of GmCERK1, GmNFR5a, and mutants were cloned into the yeast expression vector pPICZαA (Thermo Fisher Scientific, Shanghai, China) through the double digestion and ligation using the restriction endonuclease EcoRI/XbaI (NEB, Suzhou, China) and T4 ligase. Then, the linearized recombinant plasmid pPICZαA‐GmCERK1 and pPICZαA‐GmNFR5a were transformed into P. pastoris X‐33. The positive colonies were selected on YPDS medium (1% w/v yeast extract, 2% w/v peptone, 2% w/v glucose, 2% w/v agar, 100 μg/mL antibiotic Zeocin (Thermo Fisher Scientific)) plates and verified by direct DNA sequencing. Protein expression was carried out initially in BMGY media (100 mM potassium phosphate pH 6.0, 1.34% w/v YNB, 4 × 10^−5% w/v biotin, 1% v/v glycerol) at 28°C with shaking (180 rpm) until the OD600 reached 2.0–6.0. The cell pellet was transferred into BMMY medium (100 mM potassium phosphate pH 6.0, 1.34% w/v YNB, 4 × 10^−5% w/v biotin, 0.5% v/v methanol) and continuously supplied with the addition of 0.5% (v/v) methanol every day for 5 d. […]
(§3) GmCERK1^ECD, GmNFR5a^ECD, and all mutants were labeled with a fluorescent dye using the Monolith Protein Labeling Kit RED‐NHS second Generation (MO‐L011). […] The data were analyzed and fitted by plotting ligand concentrations against bound fractions using the MO.Affinity Analysis v3.0.5 software. […]

[3] = tested on: GmNFR5a homodimer; assay: Co-immunoprecipitation of GFP-tagged GmNFR5a with HA-tagged GmNFR5a in N. benthamiana; type: cell-based, soybean (Glycine max); conditions: Co-IP; N. benthamiana leaves treated 50 mg/L for 5 min
Description: as §1

[4] = tested on: GmCERK1 homodimer; assay: Co-immunoprecipitation of GmCERK1-GFP with GmCERK1-HA in N. benthamiana; type: cell-based, soybean (Glycine max); conditions: Co-IP; N. benthamiana leaves treated 50 mg/L for 5 min
Description: as §1

[5] = tested on: Phytophthora sojae P6497; assay: P. sojae infection of pretreated soybean etiolated hypocotyls; type: in vivo, Phytophthora sojae on soybean (Glycine max); conditions: for biomass of P. sojae: dp6, 50 mg/L, 24 h before inoculation with zoospores, etiolated hypocotyls, 48 hpi, genomic DNA qPCR, vs mock dH2O
Description: For soybean etiolated hypocotyls inoculation assays, etiolated hypocotyls of soybean (cultivar Williams) were inoculated with P. sojae zoospore suspensions (100 zoospores). Infected etiolated hypocotyls were maintained at 25°C in the dark for 2 d, photographed and collected for biomass detection. For soybean hairy‐root inoculation assays, transgenic hairy roots were soaked in CTOS/CSOS (50 mg/L) or mock (dH2O) for 12 h and then were infected with red fluorescent protein (RFP)‐labeled P. sojae strain P6497, and fluorescence was visualized in the infected area of soybean hairy root and the biomass of P. sojae was determined by qRT‐PCR at 48 hpi.

[6] = tested on: GmNFR5a-GmCERK1 interaction; assay: Co-immunoprecipitation of GmNFR5a-GFP with GmCERK1-HA in N. benthamiana; type: cell-based, soybean (Glycine max); conditions: Co-IP; N. benthamiana leaves treated 50 mg/L for 5 min
Description: as §1

[7] = target: GmNFR5a^ECD (Glycine max, UniProt A5YJV9); assay: Microscale thermophoresis (MST) binding to GmNFR5a^ECD; design: species or system soybean (Glycine max); conditions: ligand dp6, His-tagged protein purified from Pichia pastoris, read-out: dissociation constant (K D) with GmNFR5a^ECD
Description: as §2, §3

Chain of GmCERK1^ECD (K7N1N7 entry or part of it): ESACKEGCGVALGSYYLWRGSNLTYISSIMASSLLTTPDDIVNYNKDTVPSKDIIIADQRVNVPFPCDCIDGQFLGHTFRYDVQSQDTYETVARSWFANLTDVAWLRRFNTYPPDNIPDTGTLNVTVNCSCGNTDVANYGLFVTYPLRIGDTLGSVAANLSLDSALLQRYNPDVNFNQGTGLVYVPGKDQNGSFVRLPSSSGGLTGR
Chain of GmNFR5a^ECD (A5YJV9 entry or part of it): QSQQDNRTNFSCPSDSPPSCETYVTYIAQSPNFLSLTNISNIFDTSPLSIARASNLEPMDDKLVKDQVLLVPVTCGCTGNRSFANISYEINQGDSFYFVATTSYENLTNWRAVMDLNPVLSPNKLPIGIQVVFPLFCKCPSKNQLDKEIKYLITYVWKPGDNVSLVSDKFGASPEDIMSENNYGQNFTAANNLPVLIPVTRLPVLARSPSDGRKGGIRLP

SMILES | interaction between GmCERK1 and GmCAK1 [1] | Kd [2] | GmNFR5a homodimer formation [3] | GmCERK1-GFP / GmCERK1-HA interaction (homodimer) [4] | biomass of P. sojae [5] | plant resistance elicited, compared with CTOS ([5]; soybean etiolated hypocotyls, P. sojae (Figure 1E, F)) | GmNFR5a interaction with GmCERK1 [6] | Kd [7]
N[C@H]1[C@H](O[C@H]2[C@H](O)[C@@H](N)[C@H](O[C@H]3[C@H](O)[C@@H](N)[C@H](O[C@H]4[C@H](O)[C@@H](N)[C@H](O[C@H]5[C@H](O)[C@@H](N)[C@H](O[C@H]6[C@H](O)[C@@H](N)C(O)O[C@@H]6CO)O[C@@H]5CO)O[C@@H]4CO)O[C@@H]3CO)O[C@@H]2CO)O[C@H](CO)[C@@H](O)[C@@H]1O (stereo partly drawn) [CSOS (dp6), chitosan oligosaccharide] | diminished | 10.6 ± 1.46 mM | strong homodimer | strong interaction | significantly lower | somewhat weaker | interacted strongly | 7.04 ± 2.62 mM
CC(=O)N[C@H]1[C@H](O[C@H]2[C@H](O)[C@@H](NC(C)=O)[C@H](O[C@H]3[C@H](O)[C@@H](NC(C)=O)C(O)O[C@@H]3CO)O[C@@H]2CO)O[C@H](CO)[C@@H](O[C@@H]2O[C@H](CO)[C@@H](O[C@@H]3O[C@H](CO)[C@@H](O[C@@H]4O[C@H](CO)[C@@H](O)[C@H](O)[C@H]4NC(C)=O)[C@H](O)[C@H]3NC(C)=O)[C@H](O)[C@H]2NC(C)=O)[C@@H]1O (stereo partly drawn) [CTOS (dp6), chitin oligosaccharide] | diminished | 3.25 ± 0.95 mM | strong homodimer | strong interaction | significantly lower |  | interacted strongly | 20.5 ± 6.07 mM
